Test results: patent US5583000A, “Protease-binding compounds and methods of use” (priority 1993, dated 1996)
Converted amounts (≈) assume the structure as drawn. Where two headings read alike, the source gives them in different places. Square brackets hold non-standard residues; d marks the D form. Ends that are not written are not given here. Peptide text beside a SMILES is read from it. * marks the point of attachment. Sta = CC(C)C[C@H](N)[C@@H](O)CC(=O)O; Isovaleryl = CC(C)CC(=O)*

Tests used:
[1] = molecular target: T1, HIV-2 PR (Human immunodeficiency virus type 2 subtype A, UniProt P04584); experiment: Protection experiment, incorporation of radio-labelled UCSF84; assay type: binding
T1 construct: HIV-2 PR (at a final concentration of 30 μg/mL); made in house

[2] = molecular target: HIV-1 PR C95M (Human immunodeficiency virus type 1 group M subtype B, UniProt P03369, C585M); experiment: as above; assay type: binding; settings: for incorporation after preincubation of the enzyme: preincubation 10 μM, then radio-labelled UCSF84
[3] = molecular target: T2, HIV-1 PR (Human immunodeficiency virus type 1 group M subtype B, UniProt P03369); experiment: biochemical; assay type: binding; settings: preincubation 10 μM one hour, then radio-labelled UCSF84 200 μM
[4] = molecular target: T1, HIV-2 PR; experiment: biochemical; assay type: biochemical; settings: for KI (inactivation): inhibitor concentration resulting in half-maximal inactivation, pH 8.0, 25° C., read-out: kinact (μM) HIV-2; for kinact: pH 8, maximum inactivation rate, read-out: Vinact (min^-1 × 10^3) HIV-2 (converted)
[5] = molecular target: HIV-1 PR Q7K (Human immunodeficiency virus type 1 group M subtype B, UniProt P03369, Q497K); assay type: biochemical
[6] = physchem
[7] = test system: p24; experiment: p24 core antigen ELISA of virus from treated COS-7 cells
Protocol: Drug treatment. The compounds were added 48 hours post-transfection, at the peak of virus production, and the incubation was restricted to a 4-hour period. […] Culture media were adjusted to the desired concentration of these compounds just prior to the addition of the media to cells. To avoid precipitation, the compounds were aliquoted first to a tube in sufficient DMSO to yield a 1.0% final concentration, and subsequently the culture medium was added quickly and vortexed. The culture medium was collected after 4 hours of incubation of the cells with each of the compounds. This culture supernatant is the source of virus for measurement of infectivity as well as levels of p24 and other capsid proteins.
p24 Core antigen ELISA assay. An ELISA kit purchased from NEN/Dupont was used to determine the amount of p24 present in culture media or virus preparations. This capture assay uses a monoclonal antibody that preferentially binds p24 while it reacts with larger capsid protein precursors to a very limited extent. The assay was carded out using the manufacturer's indications. Samples were pre-treated with 1% Triton to inactivate the virus.
Virus isolation by ultracentrifugation. The culture medium was filtered through a 0.45 μm syringe filter and was then centrifuged to remove any precipitate. The medium was then spun through a cushion of 20% sucrose in PBS in an SW41 Beckman rotor for 1.5 hours at 35K and 4° C. The pelleted material was collected.
Following incubation of virus-producing cells with various concentrations of the test compounds, the virus particles were isolated by ultracentrifugation. These particles were disrupted using Triton X-100 and the amount of p24 capsid protein was quantitated by ELISA.

[8] = molecular target: T3, HIV-1 protease (Human immunodeficiency virus type 1 group M subtype B, UniProt P03369); experiment: biochemical; settings: for IC50: HIV-1 Protease IC50 (μM) 1M NaCl
[9] = molecular target: T2, HIV-1 PR; settings: pH 8
[10] = in vitro
Protocol: Cytotoxicity. The MTT assay was performed as follows:
The cells were seeded in 96-well plates and grown overnight to near 50% confluency. A serial dilution (1 to 500 μM) of each compound in culture media was prepared and 250 μL/well was added in duplicate. The cells were allowed to grow for various periods of time (6, 24, 48 hours) and any precipitation of compounds in the wells was noted. The assay was performed by removing 200 μL of the culture media and adding 25 μL of MTT solution (2 mg/mL in phosphate buffered saline (PBS)). This was incubated for 4 hours at 37° C. and live cells began to turn purple while the solution remained yellow. To quench the reaction and solubilize the reaction product, 160 μL of acidified isopropanol (4 mL 1N HCl for 96 mL alcohol) were added and the resulting mixture was mixed vigorously to dissolve purple crystals. Absorbance was determined at 550-570 nm on an ELISA plate reader within 0.5-2 hours. […] To obtain the LD50 values for each compound, the concentration at which the absorbance is haft of that for the untreated cells was determined.

[11] = in vitro; settings: african green monkey, cos-7 cells
Protocol: (§1) MTT cell viability assay. This is a quantitative colorimetric assay for mammalian cell survival and proliferation. Cells were seeded in 96 well plates and grown to near 50% confluency. A serial dilution (1 to 500 μM) of each compound was then prepared in culture media and added (250 μL/well) in duplicate. All culture media was adjusted to a final concentration of 1.0% DMSO (volume basis). The cells were allowed to grow for either 4 hours or 24 hours. The culture media were then removed, and the cells were washed with phosphate buffered saline (PBS) before 50 μL of MTT solution (1 mg/mL in PBS) was added. After incubating for 4 hours at 37° C., the reaction was quenched by adding 160 μL of acidified isopropanol and mixing to dissolve purple crystals. The absorbance was determined within 30 minutes at 570 nm on an ELISA plate reader.
(§2) The cytotoxic effect of the inhibitors was determined using the MTT stain viability assay.

[12] = molecular target: T2, HIV-1 PR; settings: pH 8; remark: listed apart in the source
Protocol: Once full inhibition was achieved, the enzyme was isolated by reverse phase HPLC on a C3 -Zorbax Protein Plus column (4.6 mm×25 cm), using a 100-minute linear gradient from 5 to 65% acetonitrile in 0.1% TFA. The flow rate was 1 mL/min and the eluent was monitored at 220 nm. The two major components of the isolated sample were concentrated under vacuum, dissolved in a small volume of 50% acetonitrile and 1% acetic acid, and their molecular weights determined by electrospray mass spectrometry. The spectra were recorded on a VG EIectrospray. Mass Spectrometer Model Bio-Q.

[13] = test system: HIV; experiment: HeLa/T4 infectivity assay with replication-defective virions from transfected COS-7 cells; assay type: cell-based; settings: Human immunodeficiency virus 1, HeLaT4; 100 μM, 4-hour treatment; read-out: Hela/T4 Infection % Colony Reduction
[14] = molecular target: T3, HIV-1 protease; assay type: cell-based; design: fused to amino acids 5 (Asp) to 179 (Trp) of the pol region; human superoxide dismutase (hSOD, 153 residues) (N); Phe-Arg-Glu are pol residues) (N); additional Pro residue of pol (C); expressed in transfected cells; host or cells: E. coli strain D1210 harboring plasmid pSOD/PR179; settings: 500 μM
[15] = MTT cell viability assay (Tables 5 and 7); settings: african green monkey, cos-7 cells
Protocol: as §1, §2

[16] = molecular target: HIV protease (Human immunodeficiency virus type 1 group M subtype B, UniProt P04585); settings: cited from earlier work
[17] = read-out: kinact (μM) HIV-1; inhibitor concentration resulting in half-maximal inactivation; pH 8.0, 25° C.

T1 sequence (P04584 514-612 limits assumed): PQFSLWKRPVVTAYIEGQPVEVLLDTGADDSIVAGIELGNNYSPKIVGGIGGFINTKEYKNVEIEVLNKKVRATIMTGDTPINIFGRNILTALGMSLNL

Row | Compound | incorporation after preincubation of the enzyme [2] | KI (inactivation) [4] [µM] | kinact [4] [min⁻¹] | solubility [6] [µM] | IC50 [8] [µM] | CC50 at 6 h [10] [µM] | CC50 at 4 h [11] [µM] | CC50 at 24 h [11] [µM] | KI (inactivation) [5, 17] [µM] | other results
1 | O=[N+]([O-])c1ccc(OCC2CO2)cc1 (stereo not drawn) [EPNP, 1,2-epoxy-3-(p-nitrophenoxy)-propane, reference compound] | sharply reduced | 6700 ± 600 | 0.0482 | – | – | – | – | – | – | radioactivity incorporation after preincubation [1]: almost complete elimination of radioactivity incorporation; inhibition at 10 µM ([3]; 1 h, pH 8, read-out: blocking of radioactivity incorporation to HIV-1 PR): ~50%; KI (inactivation) ([5]; inhibitor concentration resulting in half-maximal inactivation; pH 8.0, 25° C.; read-out: kinact (μM) HIV-1): 9900 ± 1000 µM
2 | OC1(c2ccc(Cl)cc2)CCN(CC#CC2(c3ccccc3)CO2)CC1 (stereo not drawn) [UCSF84] | – | 283 ± 9.3 | 0.0146 | > 250 | 150 | 100 to 165 | 120 | 50 | 521 ± 56.6 | IC50 ([7]; read-out: Reduction of p24 IC50, 4 hours incubation, ELISA): 50 µM; reversibility of inhibition after dilution and buffer exchange [9]: irreversible modification of the enzyme; incorporation of radioactivity relative to HIV-1 PR ([2]; 200 μM, one hour, 25° C.): approximately 50%
3 | O=C(C#CCN1CCC(O)(c2ccc(Cl)cc2)CC1)c1cccc(-c2ccccc2)c1 [UCSF142, 4-(4'-(4"-chlorophenyl)-4'-hydroxypiperidinyl)-1-m-biphenylbut-2-yn-1-one] | – | 8.6 ± 1 | 0.0097 | 100 (≈ 43 µg/mL) | 63 | 35 | 35 | < 5 | 10.7 ± 1.3 | HIV-1 Protease Therapeutic Index (LD50 /IC50) [8]: 0.56; molecules of inhibitor bound per HIV-1 protease (molecular weight 11,649) [12]: two molecules
4 | C/C=C/C/C=C/CCC(=O)[C@H]1O[C@H]1C(N)=O [cerulenin, reference compound] | – | – | – | – | – | – | 900 | – | – | activity at 100 µM ([7]; Human immunodeficiency virus 1, COS-7, 4 h, read-out: % p24 Relative to Untreated): 36%; inhibition at 100 µM [13]: 77%; inhibition of protein processing (35-kDa and 38-kDa intermediates) ([14]; 15 minutes (FIG. 11b)): no detectable inhibition; inhibition of protein processing (intermediate bands) ([14]; 120 minutes (FIG. 11c)): protein processing inhibition; cytotoxicity at 4 h, 100 µM [15]: 0%
5 | CC(C)CC(=O)N[C@H](C(=O)N[C@H](C(=O)N[C@@H](CC(C)C)[C@@H](O)CC(=O)N[C@@H](C)C(=O)N[C@@H](CC(C)C)[C@@H](O)CC(=O)O)C(C)C)C(C)C [pepstatin A] (Isovaleryl-VV[Sta]A[Sta]-OH) | – | – | – | – | – | – | – | – | – | inhibition of protein processing by HIV protease [16]: partially inhibit protein processing
6 | Val-Ser-Asn-Ler-.psi.[CH(OH)CH2 ]-Val-Ile-Val (VSNLVIV; numbers in words are those of the source; also: Leu-Val peptide bond replaced by hydroxyethylene isostere ψ[CH(OH)CH2]) [Compound U-85548] | sharply reduced | – | – | – | – | – | – | – | – | blocking of radioactivity incorporation to HIV-1 PR [3]: approximately 65%
